Laboratory results from patent US10487064B1, “Crystalline forms of selective S1P1 receptor modulator and preparation method thereof” (Crystal Pharmatech Co., Ltd., priority 2015, dated 2019).
In brackets after ≈: the same amount, converted by molar mass. Entries after “also recorded” stand apart in the source; their conditions may differ.

Experiments:
[1] = Solubility assessment: saturated solutions in FaSSIF, FeSSIF, SGF and water, concentration by HPLC; type: physicochemical; settings: for solubility compared with Form C in prior art: general statement
Procedure: Saturated solution of Form 2 and Form A, Form C disclosed in CN102177144B were prepared in FaSSIF (Fasted state simulated intestinal fluids, pH=6.5), FeSSIF (Fed state simulated intestinal fluids, pH=5.0), SGF (Simulated gastric fluids, pH=1.8), and water. Concentrations in the saturation solutions were measured after 1 hour and 24 hours by HPLC.
Form 3 and Form A, Form C were prepared into saturated solution in FaSSIF (Fasted state simulated intestinal fluids, pH=6.5), FeSSIF (Fed state simulated intestinal fluids, pH=5.0) and water. Concentrations in the saturation solutions were measured after 1 hour and 24 hours by HPLC.

[2] = Stability assessment of crystalline forms on storage (XRPD before and after); type: physicochemical; settings: for stability compared with Form C in prior art: general statement; for Solid Form after storage / Crystalline form after storing: XRPD; for physical stability (overall conclusion): storage conditions of the stability assessment
Procedure: 20 mg of sample of Form 2 was stored under 25° C./60% RH, 40° C./75% RH for 6 months, and 80° C. for 3 months. […] 20 mg of sample of Form 3 was stored under 25° C./60% RH and 40° C./75% RH for 6 months.

[3] = cited from earlier work
[4] = treatment of moderate-to-severe chronic plaque psoriasis; cited from earlier work

## CCC/N=C1\S/C(=C\c2ccc(OC[C@H](O)CO)c(Cl)c2)C(=O)N1c1ccccc1C [Form 1, Ponesimod]
[1]
  solubility compared with Form C in prior art: better
[2]
  stability compared with Form C in prior art: better

## CCC/N=C1\S/C(=C\c2ccc(OC[C@H](O)CO)c(Cl)c2)C(=O)N1c1ccccc1C [Form 2, Ponesimod]
[1]; FaSSIF pH=6.5, 1 h
  Solubility: 17 µg/mL (≈ 36.9 µM)
[1]; FaSSIF pH=6.5, 24 h
  Solubility: 33 µg/mL (≈ 71.6 µM)
[1]; FeSSIF pH=5.0, 1 h
  Solubility: 996 µg/mL (≈ 2160 µM)
[1]; FeSSIF pH=5.0, 24 h
  Solubility: 813 µg/mL (≈ 1760 µM)
[1]; SGF pH=1.8, 1 h
  Solubility: 97 µg/mL (≈ 210 µM)
[1]; SGF pH=1.8, 24 h
  Solubility: 124 µg/mL (≈ 269 µM)
[1]
  solubility compared with Form C in prior art: better
[1]; in FaSSIF, FeSSIF, and SGF
  solubility compared with Form A and Form C: higher
[2]; 25° C./60% RH, 6 months
  Solid Form after storage: doesn't change; also recorded: Form 2
[2]; 40° C./75% RH, 6 months
  Solid Form after storage: doesn't change; also recorded: Form 2
[2]; 80° C., 3 months
  Solid Form after storage: doesn't change; also recorded: Form 2
[2]
  stability compared with Form C in prior art: better
  physical stability (overall conclusion): good physical stability

## CCC/N=C1\S/C(=C\c2ccc(OC[C@H](O)CO)c(Cl)c2)C(=O)N1c1ccccc1C [Form 3, Ponesimod]
[1]; FaSSIF pH=6.5, 1 h
  Solubility: 84 µg/mL (≈ 182 µM)
[1]; FaSSIF pH=6.5, 24 h
  Solubility: 15 µg/mL (≈ 32.5 µM)
[1]; FeSSIF pH=5.0, 1 h
  Solubility: 1168 µg/mL (≈ 2530 µM)
[1]; FeSSIF pH=5.0, 24 h
  Solubility: 486 µg/mL (≈ 1050 µM)
[1]
  solubility compared with Form C in prior art: better
[1]; in FaSSIF and FeSSIF
  solubility compared with Form A and Form C: higher
[2]; 25° C./60% RH, 6 months
  Crystalline form after storing: doesn't change; also recorded: Form 3
[2]; 40° C./75% RH, 6 months
  Crystalline form after storing: doesn't change; also recorded: Form 3
[2]
  stability compared with Form C in prior art: better
  physical stability (overall conclusion): good physical stability

## CCC/N=C1\S/C(=C\c2ccc(OC[C@H](O)CO)c(Cl)c2)C(=O)N1c1ccccc1C [Form A, Ponesimod, reference compound]
[1]; FaSSIF pH=6.5, 1 h
  Solubility: 7 µg/mL (≈ 15.2 µM)
[1]; FaSSIF pH=6.5, 24 h
  Solubility: 4 µg/mL (≈ 8.68 µM)
[1]; FeSSIF pH=5.0, 1 h
  Solubility: 141 µg/mL (≈ 306 µM)
[1]; FeSSIF pH=5.0, 24 h
  Solubility: 163 µg/mL (≈ 354 µM)
[1]; SGF pH=1.8, 1 h
  Solubility: 34 µg/mL (≈ 73.8 µM)
[1]; SGF pH=1.8, 24 h
  Solubility: 45 µg/mL (≈ 97.6 µM)
[3]; compared with Form C
  thermodynamic stability: inferior to Form C

## CCC/N=C1\S/C(=C\c2ccc(OC[C@H](O)CO)c(Cl)c2)C(=O)N1c1ccccc1C [Form C, Ponesimod, reference compound]
[1]; FaSSIF pH=6.5, 1 h
  Solubility: 10 µg/mL (≈ 21.7 µM)
[1]; FeSSIF pH=5.0, 1 h
  Solubility: 133 µg/mL (≈ 289 µM)
[1]; FeSSIF pH=5.0, 24 h
  Solubility: 149 µg/mL (≈ 323 µM)
[1]; SGF pH=1.8, 1 h
  Solubility: 29 µg/mL (≈ 62.9 µM)
[1]; SGF pH=1.8, 24 h
  Solubility: 24 µg/mL (≈ 52.1 µM)
[1]; water, thermodynamic from solid, H2O, 1 h, ND = below the LOD of instrument
  solubility at 1 h: 3 µg/mL (≈ 6.51 µM)
[1]; water, thermodynamic from solid, H2O, 24 h, ND = below the LOD of instrument
  solubility at 24 h: 1 µg/mL (≈ 2.17 µM)
[3]
  solubility (in words): unsatisfactory

## CCC/N=C1\S/C(=C\c2ccc(OC[C@H](O)CO)c(Cl)c2)C(=O)N1c1ccccc1C [Form III, Ponesimod]
[3]; at room temperature
  form transformation: will transform to Form II at room temperature

## CCC/N=C1\S/C(=C\c2ccc(OC[C@H](O)CO)c(Cl)c2)C(=O)N1c1ccccc1C [Ponesimod]
[4]
  result of phase II mid-stage study: positive results
